The target in experiment [1] is recombinant thioredoxin reductase 1 (TrxR1) (Homo sapiens (Human), UniProt Q16881). Put plainly: Inhibition of recombinant TrxR1 (DTNB assay). It counts as biochemical. As to conditions: 30 nM TrxR1, 250 μM NADPH, 15 minutes incubation, O.D. 412 nm, read-out: TrxR inhibition (IC50). The procedure: (§1) Small molecule inhibition of recombinant thioredoxin reductase 1 (TrxR1) and gluthathione reductase (GR) was examined in 96-well plate format. 30 nM TrxR1 was incubated in the presence of 250 μM NADPH, 0.1 mg/ml BSA, and various concentrations of compound (1% DMSO final) in 50 mM Tris (pH 7.5) and 2 mM EDTA buffer for 15 minutes. Following the incubation period, 2 mM DTNB was added to each well and the change in O.D. at 412 nm was followed. Percent activity was determined using DMSO vehicle and no TrxR1 (blank) controls. 2 nM GR was incubated in the presence of 250 μM NADPH, 0.1 mg/ml BSA, and various concentrations of compounds (1% DMSO final) in 50 mM Tris (pH 7.5) and 2 mM EDTA buffer for 15 minutes. Following the incubation period, 1 mM GSSG was added to each well and the change in O.D. at 340 nm was followed. Percent activity was determined using DMSO vehicle and no GR (blank) controls.
recombinant thioredoxin reductase 1 (TrxR1), sequence (Q16881 151-649): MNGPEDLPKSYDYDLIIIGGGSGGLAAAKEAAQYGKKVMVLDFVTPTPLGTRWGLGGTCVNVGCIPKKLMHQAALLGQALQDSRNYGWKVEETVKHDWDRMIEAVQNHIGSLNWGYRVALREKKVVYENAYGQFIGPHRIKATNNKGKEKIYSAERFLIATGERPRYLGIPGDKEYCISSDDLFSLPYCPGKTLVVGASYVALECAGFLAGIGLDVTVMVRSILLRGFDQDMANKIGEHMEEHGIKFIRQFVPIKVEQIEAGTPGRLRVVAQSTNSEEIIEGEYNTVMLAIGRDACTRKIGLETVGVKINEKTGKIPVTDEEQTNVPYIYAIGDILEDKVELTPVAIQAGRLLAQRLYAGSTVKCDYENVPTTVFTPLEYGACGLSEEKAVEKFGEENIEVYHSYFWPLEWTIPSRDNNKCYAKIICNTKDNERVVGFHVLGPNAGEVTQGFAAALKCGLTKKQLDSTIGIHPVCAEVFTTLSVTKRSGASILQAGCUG

Experiment [2] concerns MDA-MB-231. The experiment can be described thus: Cancer cell viability assay (MTT), MDA-MB-231. In kind it is cell-based. As to conditions: Homo sapiens, 72 hrs, 4000 cells/well, 10% FBS media. The method, then:
(§2) Breast cancer and glioblastoma cell lines were plated 4000 cells/well in 96-well plates in the presence of 10% FBS media. The following day cells were treated with various concentrations of the compound of Example 1 (0.1% DMSO final) and incubated for 72 hrs. After the incubation An MTT assay was performed to access cell viability. Percent of viability was determined using DMSO vehicle and no cell (blank) controls.

Experiment [3] concerns the target recombinant gluthathione reductase (GR) (Homo sapiens (Human), UniProt P00390). The experiment can be described thus: Inhibition of recombinant GR (GSSG assay). In kind it is biochemical. As to conditions: 2 nM GR, 250 μM NADPH, 15 minutes incubation, O.D. 340 nm. The procedure: as §1
Experiment [4] deals with MDA-MB-468. Put plainly: Cancer cell viability assay (MTT), MDA-MB-468. As to conditions: Homo sapiens, 72 hrs, 4000 cells/well, 10% FBS media. It counts as cell-based. The method, then: as §2
For experiment [5], the system named is MDA-MB-231 cells. The experiment can be described thus: Breast cancer cell viability assay (Alamar Blue). As to conditions: Homo sapiens, 72 hrs, 10% FBS media containing 25 nM selenite, 2000 cells/well. In kind it is cell-based. The procedure: MDA-MB-231 cells were plated 2000 cells/well in 96-well black optical plates in the presence of 10% FBS media containing 25 nM selenite. The following day cells were treated with various concentrations of compounds (0.1% DMSO final) and incubated for 72 hrs. After the incubation Alamar Blue reagent was added to each well and incubated for additional 3 hrs. Fluorescence was read ex:530 nm/em:590 nm, and percent of viability was determined using DMSO vehicle and no cell (blank) controls.
(In general: Alamar Blue is a resazurin reagent that responds to reducing activity.)

In experiment [6] the test system is U-87 MG. The experiment can be described thus: Cancer cell viability assay (MTT), U-87 MG. In kind it is cell-based. As to conditions: Homo sapiens, 72 hrs, 4000 cells/well, 10% FBS media. The procedure: as §2

recombinant gluthathione reductase (GR), sequence (P00390 44-522): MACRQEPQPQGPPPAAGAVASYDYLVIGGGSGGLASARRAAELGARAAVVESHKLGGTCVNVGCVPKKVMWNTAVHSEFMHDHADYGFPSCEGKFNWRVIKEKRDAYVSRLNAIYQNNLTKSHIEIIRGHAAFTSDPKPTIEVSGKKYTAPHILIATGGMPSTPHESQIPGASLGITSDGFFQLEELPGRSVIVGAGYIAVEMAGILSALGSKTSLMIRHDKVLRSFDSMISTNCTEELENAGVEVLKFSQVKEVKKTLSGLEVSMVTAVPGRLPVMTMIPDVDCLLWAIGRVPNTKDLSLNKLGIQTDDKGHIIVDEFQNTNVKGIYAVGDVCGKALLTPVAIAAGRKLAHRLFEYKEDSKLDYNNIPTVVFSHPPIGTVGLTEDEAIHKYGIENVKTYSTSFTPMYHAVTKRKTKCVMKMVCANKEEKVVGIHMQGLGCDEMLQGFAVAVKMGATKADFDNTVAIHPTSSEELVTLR

Turning to `COc1ccc([N+](=O)[O-])c([S+]([O-])c2ccc(Cl)cc2)n1` (stereo not drawn) [Example 1, 2-((4-Chlorophenyl)sulfinyl)-6-methoxy-3-nitropyridine], the IC50 – broadly, the concentration at which inhibition is half-maximal – came out at 0.00316 µM in experiment [1]; 5.26 µM in experiment [2]; 41.3 µM in experiment [3]; 3.86 µM in experiment [4]; 2.99 µM in experiment [5]; 6.76 µM in experiment [6].

(Values after patent US11208384B2, “Sulfinylpyridines and their use in the treatment of cancer” (Oblique Therapeutics AB, priority 2017, dated 2021).)
